One assay addresses T1, Estrogen receptor (Homo sapiens, UniProt P03372).
T1 sequence (P03372 whole entry): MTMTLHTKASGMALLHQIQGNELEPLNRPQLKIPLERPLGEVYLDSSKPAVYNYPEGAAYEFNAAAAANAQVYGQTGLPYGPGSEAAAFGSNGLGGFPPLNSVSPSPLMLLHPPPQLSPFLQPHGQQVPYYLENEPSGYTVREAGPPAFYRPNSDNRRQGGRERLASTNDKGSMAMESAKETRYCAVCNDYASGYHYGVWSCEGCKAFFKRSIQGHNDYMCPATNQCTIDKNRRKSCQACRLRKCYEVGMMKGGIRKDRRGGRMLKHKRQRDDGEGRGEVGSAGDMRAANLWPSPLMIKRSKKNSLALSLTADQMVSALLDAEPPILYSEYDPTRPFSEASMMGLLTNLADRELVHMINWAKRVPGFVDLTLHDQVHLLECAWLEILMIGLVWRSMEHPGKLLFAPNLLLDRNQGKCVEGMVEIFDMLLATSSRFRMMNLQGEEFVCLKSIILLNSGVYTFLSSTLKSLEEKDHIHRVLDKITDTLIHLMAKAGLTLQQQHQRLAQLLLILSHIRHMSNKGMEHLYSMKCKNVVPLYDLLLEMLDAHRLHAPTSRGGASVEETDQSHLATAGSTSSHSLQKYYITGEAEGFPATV
The assay is described as follows: Binding affinity to ERalpha (unknown origin).

In assay [1] the target is Tumour suppressor p53/oncoprotein Mdm2 (Homo sapiens, UniProt P04637+Q00987). The assay can be described thus: Inhibition of p53-HDM2 (unknown origin) interaction. In kind it is protein assay.
Sequence of Tumour suppressor p53/oncoprotein Mdm2 (P04637 whole entry): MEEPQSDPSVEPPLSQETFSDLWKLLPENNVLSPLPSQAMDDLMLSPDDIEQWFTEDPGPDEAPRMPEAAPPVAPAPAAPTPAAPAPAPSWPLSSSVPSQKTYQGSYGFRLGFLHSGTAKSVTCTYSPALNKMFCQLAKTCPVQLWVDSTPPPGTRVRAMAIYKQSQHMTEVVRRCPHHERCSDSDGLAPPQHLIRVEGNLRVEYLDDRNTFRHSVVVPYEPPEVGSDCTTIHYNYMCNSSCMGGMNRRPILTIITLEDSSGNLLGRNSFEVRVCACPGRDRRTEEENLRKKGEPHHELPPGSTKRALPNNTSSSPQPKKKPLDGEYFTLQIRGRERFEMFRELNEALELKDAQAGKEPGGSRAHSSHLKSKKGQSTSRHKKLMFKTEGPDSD
Sequence of Tumour suppressor p53/oncoprotein Mdm2 (Q00987 whole entry): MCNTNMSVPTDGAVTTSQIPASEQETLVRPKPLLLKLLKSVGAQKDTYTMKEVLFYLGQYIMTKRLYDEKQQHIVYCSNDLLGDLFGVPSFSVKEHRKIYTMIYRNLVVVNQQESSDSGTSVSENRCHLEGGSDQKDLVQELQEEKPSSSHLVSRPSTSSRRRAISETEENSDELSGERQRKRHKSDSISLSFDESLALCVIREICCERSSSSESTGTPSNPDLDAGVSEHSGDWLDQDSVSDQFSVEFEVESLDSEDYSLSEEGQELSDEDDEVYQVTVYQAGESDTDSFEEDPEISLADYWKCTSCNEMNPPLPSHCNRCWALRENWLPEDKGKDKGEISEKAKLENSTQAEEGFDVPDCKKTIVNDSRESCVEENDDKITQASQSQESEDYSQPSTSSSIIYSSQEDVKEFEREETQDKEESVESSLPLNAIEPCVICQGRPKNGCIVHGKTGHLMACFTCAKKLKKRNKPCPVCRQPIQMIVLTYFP
The target of assay [2] is Menin/Histone-lysine N-methyltransferase MLL (Homo sapiens, UniProt O00255+Q03164). The assay is described as follows: Inhibition of menin-MLL (unknown origin) interaction. In kind it is protein assay.
In assay [3] the target is E3 ubiquitin-protein ligase Mdm2 (Homo sapiens, UniProt Q00987). The assay can be described thus: Binding affinity to MDM2 (unknown origin).
Sequence of E3 ubiquitin-protein ligase Mdm2 (Q00987 whole entry, the tested form may be a part): as the sequence (Q00987 whole entry) above
In another assay the target is Bcl-2-like protein 1 (Homo sapiens, UniProt Q07817). The assay can be described thus: Inhibition of BCL-xL-BH3 domain (unknown origin) interaction.
Sequence of Bcl-2-like protein 1 (Q07817 whole entry, the tested form may be a part): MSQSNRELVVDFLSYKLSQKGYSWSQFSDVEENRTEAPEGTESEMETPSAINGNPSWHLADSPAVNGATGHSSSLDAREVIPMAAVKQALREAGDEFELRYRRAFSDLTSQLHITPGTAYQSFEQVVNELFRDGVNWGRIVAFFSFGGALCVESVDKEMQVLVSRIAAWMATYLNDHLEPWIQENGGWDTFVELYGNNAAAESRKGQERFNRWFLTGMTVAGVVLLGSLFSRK

pIC50, pKd, pKi: −log10 of the molar value. Starred links: 1 amine or outer side, 2 acyl side, 3 side chain; linkers in the order of their positions; H or OH if unused. Positions of bridges follow the written chain, without caps; N, C: chain ends. Non-standard residues stand in square brackets, D forms with d. Residues, ends and D or L forms follow the SMILES beside them. X1 = O=C([C@H]1CNC[C@@H]1N[*:1])[*:2]; X2 = O=C([C@H]1CCC[C@@H]1N[*:1])[*:2]

The source of these data is ChEMBL document CHEMBL3751840, “Peptide-based inhibitors of protein-protein interactions” (Bioorg Med Chem Lett, 2016).

A word on the pKd: it is the Kd on a negative log10 scale, so that one unit is a factor of ten. A high value points to a low Kd. Take `CC(=O)N[C@@H](Cc1cnc[nH]1)C(=O)N[C@@H](CCCCN)C(=O)N[C@@]1(C)CCCCCCCC[C@@](C)(C(=O)N[C@@H](CC(C)C)C(=O)N[C@@H](CCC(N)=O)C(=O)N[C@@H](CC(=O)O)C(=O)N[C@@H](CO)C(N)=O)NC(=O)[C@H](CCC(N)=O)NC(=O)[C@H](Cc2cnc[nH]2)NC(=O)[C@H](CC(C)C)NC1=O`: the pKd at Estrogen receptor was 6.45.
As a reminder, the pIC50 is the negative decadic logarithm of the IC50, by convention in mol/L. In turn, `CC(C)C[C@@H]1NC(=O)[C@H](Cc2c[nH]c3ccc(Cl)cc23)NC(=O)[C@H](CCC(=O)O)NC(=O)[C@H](Cc2ccccc2)NC(=O)[C@@H]2CCCN2C(=O)[C@H]2CCCN2C(=O)[C@H](Cc2ccccc2)NC(=O)[C@H](CCC(=O)O)NC(=O)[C@H](Cc2c[nH]c3ccccc23)NC(=O)[C@H](CC(=O)O)NC1=O` had a pIC50 in assay [1] of 6.85.
On the same count and under the same terms, the same measure for `CC(C)CCN(CC(=O)N(CCS(N)(=O)=O)CC(=O)N(CC(N)=O)Cc1ccc([N+](=O)[O-])cc1)C(=O)CN(CCCP(=O)(O)O)C(=O)CN(Cc1ccc([N+](=O)[O-])cc1)C(=O)CN(CCc1c[nH]c2ccccc12)C(=O)CN(CCCCP(=O)(O)O)C(=O)CN(Cc1ccc([N+](=O)[O-])cc1)C(=O)CN(CCc1ccccc1)C(=O)CNCc1ccc([N+](=O)[O-])cc1`: 5.18.
As usually defined, the pKi is −log10 of the Ki, conventionally taken in molar units. Lower therefore signals a large Ki. Consider `CC(=O)N[C@@H](CCCNC(=N)N)C(=O)N[C@@H](Cc1c[nH]c2ccccc12)C(=O)NC1CCCCCCCNC(=O)[C@@H]2CCCN2C(=O)[C@H](CCCNC(=N)N)NC(=O)[C@H](C)NC(=O)[C@@H]2CCCN2C(=O)C(Cc2ccccc2)NC1=O` (single isomer, unassigned), for which the pKi in assay [2] is 7.62.
As for `CC(C)C[C@H](NC(=O)[C@@H]1CSSC[C@H](N)C(=O)N[C@@H](CC(N)=O)C(=O)N[C@H]2CSSC[C@H](NC(=O)[C@H](CC(C)C)NC(=O)[C@H](Cc3ccccc3)NC(=O)[C@H]([C@@H](C)O)NC(=O)[C@H](CCC(=O)O)NC(=O)[C@@H]3CCCN3C(=O)[C@H](C)NC(=O)[C@H](CCCCN)NC2=O)C(=O)N[C@@H](Cc2ccc(O)cc2)C(=O)N[C@@H](Cc2c[nH]c3ccccc23)C(=O)N[C@@H](CCCNC(=N)N)C(=O)N1)C(=O)N[C@@H](CCC(N)=O)C(=O)N[C@@H](Cc1cnc[nH]1)C(N)=O` (H-CNCKAPETFLCYWRCLQH-NH2; disulfide 1-15, 3-11), the pKd in assay [3] was 4.75.
`CC(=O)N[C@H]1CNC[C@@H]1C(=O)N[C@@H](C)C(=O)N[C@H]1CCC[C@@H]1C(=O)N[C@@H](CCCNC(=N)N)C(=O)N[C@H]1CCC[C@@H]1C(=O)N[C@@H](CC(C)C)C(=O)N[C@H]1CCC[C@@H]1C(=O)N[C@@H](CCCCN)C(=O)N[C@@H](CC(C)C)C(=O)NCC(=O)N[C@@H](CC(=O)O)C(=O)N[C@@H](C)C(=O)N[C@@H](Cc1ccccc1)C(=O)N[C@@H](CC(N)=O)C(=O)N[C@@H](CCCNC(=N)N)C(N)=O` (Ac-[X1]A[X2]R[X2]L[X2]KLGDAFNR-NH2) gave a pKi at Bcl-2-like protein 1 of 8.70.
